Test [1] concerns the target T1, Human Neuropeptide Y2 Receptor (Homo sapiens, UniProt P49146).
T1 construct: purchased CHEMICON HTS066M
T1 sequence (P49146 1-381): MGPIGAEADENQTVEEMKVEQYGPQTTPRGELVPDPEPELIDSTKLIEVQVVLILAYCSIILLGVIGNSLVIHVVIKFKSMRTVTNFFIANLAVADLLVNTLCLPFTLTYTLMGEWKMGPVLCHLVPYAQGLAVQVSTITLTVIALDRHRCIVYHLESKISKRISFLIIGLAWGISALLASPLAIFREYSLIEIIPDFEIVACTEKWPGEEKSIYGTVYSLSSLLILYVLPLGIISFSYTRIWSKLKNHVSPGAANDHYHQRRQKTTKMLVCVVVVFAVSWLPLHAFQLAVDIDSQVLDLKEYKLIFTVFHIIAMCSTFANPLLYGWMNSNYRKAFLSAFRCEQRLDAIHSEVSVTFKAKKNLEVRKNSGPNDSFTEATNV
The test can be described thus: Radioligand binding competition assay (RLB). The note with it: Table 3; human 125I-PYY (1-36) 0.02 nM, Y2 receptor membranes; read-out: Ki. The method in brief:
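Membranes (0.5 μg/well) and test peptides, serially diluted from 1 mM DMSO stocks, were incubated 2 hours at room temperature in HEPES buffer pH 7.4 with Mg, Ca and ovalbumin.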

Test [2] relates to normal NMRI mice. Put plainly: Effect on acute food intake in normal NMRI mice. In kind it is in vivo. The note with it: male NMRI mice, 10 nmol/kg subcutaneously once. The method in brief:
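Male NMRI mice acclimatized in an HM-2 real-time food intake monitoring system, fasted 6 h before dark phase. Single subcutaneous dose of 10 nmol/kg peptide given 1 h before dark; n=7-8. Food intake expressed as % of vehicle group (50 mM phosphate pH7, 5% Mannitol).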

Structures are written as SMILES. *1 amine or outer side, *2 acyl side, *3 side chain or, on linkers, in order; H or OH if unused. Where a SMILES comes first, the peptide text is derived from it. Side-chain parts run from the residue outwards. The star is where a group is joined. C18 diacid = O=C(O)CCCCCCCCCCCCCCCCC(=O)*; γGlu = O=C(O)[C@H](CCC(=O)[*:2])N[*:1]; Isovaleryl = CC(C)CC(=O)*; AEEA = NCCOCCOCC(=O)O

Regarding `CC(C)CC(=O)N[C@@H](C)C(=O)N1CCC[C@H]1C(=O)N[C@@H](CCC(=O)O)C(=O)N[C@@H](CCCCNC(=O)COCCOCCNC(=O)COCCOCCNC(=O)CC[C@H](NC(=O)CCCCCCCCCCCCCCCCC(=O)O)C(=O)O)C(=O)N1CCC[C@H]1C(=O)N[C@@H](CCC(=O)O)C(=O)N[C@@H](CCC(=O)O)C(=O)N[C@@H](CC(=O)O)C(=O)N[C@@H](C)C(=O)N[C@@H](CO)C(=O)N1CCC[C@H]1C(=O)N[C@@H](CCC(=O)O)C(=O)N[C@@H](CCC(=O)O)C(=O)N[C@@H](CC(C)C)C(=O)N[C@@H](CCC(N)=O)C(=O)N[C@@H](CCCCN)C(=O)N[C@@H](Cc1ccc(O)cc1)C(=O)N[C@@H](Cc1ccc(O)cc1)C(=O)N[C@H](C(=O)N[C@H](C(=O)N[C@@H](CC(C)C)C(=O)N[C@@H](CCCNC(=N)N)C(=O)N[C@@H](Cc1c[nH]cn1)C(=O)N[C@@H](Cc1ccc(O)cc1)C(=O)N[C@@H](Cc1ccc(O)cc1)C(=O)N[C@@H](CC(N)=O)C(=O)N[C@@H](Cc1c[nH]c2ccccc12)C(=O)N[C@@H](CC(C)C)C(=O)N[C@H](C(=O)N[C@@H](CCCNC(=N)N)C(=O)N[C@@H](CCC(N)=O)C(=O)N[C@@H](CCCNC(=N)N)C(=O)N[C@@H](Cc1ccc(O)cc1)C(N)=O)[C@@H](C)O)[C@@H](C)O)C(C)C` [Compound 132, N{alpha-4}-(3-methylbutanoyl)-N{epsilon-7}-[2-(2-{2-[2-(2-{2-[(4S)-4-carboxy-4-(17-carboxyheptadecanamido)butanamido]ethoxy}ethoxy)acetamido]ethoxy}ethoxy)acetamido]-[4A,7K,9E,18Q,19K,22V,23T,28Y,30W,31L]hPYY (4-36)], in test [1], the Ki amounted to 1.18 nM. The “Acute Food Intake 24 h [% vehicle]” value in test [2] came out at 64 % vehicle.

On to `CC(C)CC(=O)N[C@@H](C)C(=O)N1CCC[C@H]1C(=O)N[C@@H](CCC(=O)O)C(=O)N[C@@H](CCCCNC(=O)COCCOCCNC(=O)COCCOCCNC(=O)CC[C@H](NC(=O)CCCCCCCCCCCCCCCCC(=O)O)C(=O)O)C(=O)N1CCC[C@H]1C(=O)N[C@@H](CCC(=O)O)C(=O)N[C@@H](CCC(=O)O)C(=O)N[C@@H](CCC(=O)O)C(=O)N[C@@H](C)C(=O)N[C@@H](CO)C(=O)N1CCC[C@H]1C(=O)N[C@@H](CCC(=O)O)C(=O)N[C@@H](CCC(=O)O)C(=O)N[C@@H](CC(C)C)C(=O)N[C@@H](CCC(N)=O)C(=O)N[C@@H](CCCCN)C(=O)N[C@@H](Cc1ccc(O)cc1)C(=O)N[C@@H](Cc1ccc(O)cc1)C(=O)N[C@H](C(=O)N[C@@H](CO)C(=O)N[C@@H](CC(C)C)C(=O)N[C@@H](CCCNC(=N)N)C(=O)N[C@@H](Cc1c[nH]cn1)C(=O)N[C@@H](Cc1ccc(O)cc1)C(=O)N[C@@H](Cc1ccc(O)cc1)C(=O)N[C@@H](CC(N)=O)C(=O)N[C@@H](Cc1c[nH]c2ccccc12)C(=O)N[C@@H](CC(C)C)C(=O)N[C@H](C(=O)N[C@@H](CCCNC(=N)N)C(=O)N[C@@H](CCC(N)=O)C(=O)N[C@@H](CCCNC(=N)N)C(=O)N[C@@H](Cc1ccc(O)cc1)C(N)=O)[C@@H](C)O)C(C)C` [Compound 205, N{alpha-4}-(3-methylbutanoyl)-N{epsilon-7}-[2-(2-{2-[2-(2-{2-[(4S)-4-carboxy-4-(17-carboxyheptadecanamido)butanamido]ethoxy}ethoxy)acetamido]ethoxy}ethoxy)acetamido]-[4A,7K,9E,11E,18Q,19K,22V,28Y,30W,31L]hPYY (4-36)] (Isovaleryl-APEK([AEEA-AEEA-γGlu-C18 diacid])PEEEASPEELQKYYVSLRHYYNWLTRQRY-NH2), for which, in test [1], the inhibition constant (Ki) was 1.9 nM. The “Acute Food Intake 24 h [% vehicle]” value in test [2] was 65 % vehicle.

As for `CC(C)CC(=O)N[C@@H](C)C(=O)N1CCC[C@H]1C(=O)N[C@@H](CCC(=O)O)C(=O)N[C@@H](CCCCNC(=O)COCCOCCNC(=O)COCCOCCNC(=O)CC[C@H](NC(=O)CCCCCCCCCCCCCCCCC(=O)O)C(=O)O)C(=O)N1CCC[C@H]1C(=O)N[C@@H](CCC(=O)O)C(=O)N[C@@H](CCC(=O)O)C(=O)N[C@@H](CC(=O)O)C(=O)N[C@@H](C)C(=O)N[C@@H](CO)C(=O)N1CCC[C@H]1C(=O)N[C@@H](CCC(=O)O)C(=O)N[C@@H](CCC(=O)O)C(=O)N[C@H](C(=O)N[C@@H](CCC(N)=O)C(=O)N[C@@H](CCCNC(=N)N)C(=O)N[C@@H](Cc1ccc(O)cc1)C(=O)N[C@@H](Cc1ccc(O)cc1)C(=O)N[C@H](C(=O)N[C@@H](CCC(=O)O)C(=O)N[C@@H](CC(C)C)C(=O)N[C@@H](CCCNC(=N)N)C(=O)N[C@@H](Cc1c[nH]cn1)C(=O)N[C@@H](Cc1ccc(O)cc1)C(=O)N[C@@H](Cc1ccc(O)cc1)C(=O)N[C@@H](CC(N)=O)C(=O)N[C@@H](Cc1c[nH]c2ccccc12)C(=O)N[C@@H](CC(C)C)C(=O)N[C@H](C(=O)N[C@@H](CCCNC(=N)N)C(=O)N[C@@H](CCC(N)=O)C(=O)N[C@@H](CCCNC(=N)N)C(=O)N[C@@H](Cc1ccc(O)cc1)C(N)=O)[C@@H](C)O)C(C)C)C(C)C` [Compound 133, N{alpha-4}-(3-methylbutanoyl)-N{epsilon-7}-[2-(2-{2-[2-(2-{2-[(4S)-4-carboxy-4-(17-carboxyheptadecanamido)butanamido]ethoxy}ethoxy)acetamido]ethoxy}ethoxy)acetamido]-[4A,7K,9E,17V,18Q,22V,23E,28Y,30W,31L]hPYY (4-36)], the inhibitory constant (Ki) in test [1] is 2.31 nM. In addition, in test [2], the “Acute Food Intake 24 h [% vehicle]” value is 57 % vehicle.

For the compound `CC(C)CC(=O)N[C@@H](C)C(=O)N1CCC[C@H]1C(=O)N[C@@H](CCC(=O)O)C(=O)N[C@@H](CCCCNC(=O)COCCOCCNC(=O)COCCOCCNC(=O)CC[C@H](NC(=O)CCCCCCCCCCCCCCCCC(=O)O)C(=O)O)C(=O)N1CCC[C@H]1C(=O)N[C@@H](CCC(=O)O)C(=O)N[C@@H](CCC(=O)O)C(=O)N[C@@H](CCC(=O)O)C(=O)N[C@@H](C)C(=O)N[C@@H](CO)C(=O)N1CCC[C@H]1C(=O)N[C@@H](CCC(=O)O)C(=O)N[C@@H](C)C(=O)N[C@@H](CC(C)C)C(=O)N[C@@H](CCC(N)=O)C(=O)N[C@@H](CCCNC(=N)N)C(=O)N[C@@H](Cc1ccc(O)cc1)C(=O)N[C@@H](Cc1ccc(O)cc1)C(=O)N[C@H](C(=O)N[C@@H](CO)C(=O)N[C@@H](CC(C)C)C(=O)N[C@@H](CCCNC(=N)N)C(=O)N[C@@H](Cc1c[nH]cn1)C(=O)N[C@@H](Cc1ccc(O)cc1)C(=O)N[C@@H](Cc1ccc(O)cc1)C(=O)N[C@@H](CC(N)=O)C(=O)N[C@@H](Cc1c[nH]c2ccccc12)C(=O)N[C@@H](CC(C)C)C(=O)N[C@H](C(=O)N[C@@H](CCCNC(=N)N)C(=O)N[C@@H](CCC(N)=O)C(=O)N[C@@H](CCCNC(=N)N)C(=O)N[C@@H](Cc1ccc(O)cc1)C(N)=O)[C@@H](C)O)C(C)C` [Compound 115, N{alpha-4}-(3-methylbutanoyl)-N{epsilon-7}-[2-(2-{2-[2-(2-{2-[(4S)-4-carboxy-4-(17-carboxyheptadecanamido)butanamido]ethoxy}ethoxy)acetamido]ethoxy}ethoxy)acetamido]-[4A,7K,9E,11E,16A,18Q,22V,28Y,30W,31L]hPYY (4-36)], the Ki in test [1] worked out at 1.94 nM. The “Acute Food Intake 24 h [% vehicle]” value in test [2] came out at 49 % vehicle.

Turning to `CC(C)CC(=O)N[C@@H](C)C(=O)N1CCC[C@H]1C(=O)N[C@@H](CCC(=O)O)C(=O)N[C@@H](CCCCNC(=O)COCCOCCNC(=O)COCCOCCNC(=O)CC[C@H](NC(=O)CCCCCCCCCCCCCCCCC(=O)O)C(=O)O)C(=O)N1CCC[C@H]1C(=O)N[C@@H](CCC(=O)O)C(=O)N[C@@H](CCC(=O)O)C(=O)N[C@@H](CC(=O)O)C(=O)N[C@@H](CO)C(=O)N[C@@H](CCC(=O)O)C(=O)N1CCC[C@H]1C(=O)N[C@@H](CCC(=O)O)C(=O)N[C@@H](CCC(=O)O)C(=O)N[C@@H](CC(C)C)C(=O)N[C@@H](CCC(N)=O)C(=O)N[C@@H](CCCNC(=N)N)C(=O)N[C@@H](Cc1ccc(O)cc1)C(=O)N[C@@H](Cc1ccc(O)cc1)C(=O)N[C@H](C(=O)N[C@@H](CO)C(=O)N[C@@H](CC(C)C)C(=O)N[C@@H](CCCNC(=N)N)C(=O)N[C@@H](Cc1c[nH]cn1)C(=O)N[C@@H](Cc1ccc(O)cc1)C(=O)N[C@@H](Cc1ccc(O)cc1)C(=O)N[C@@H](CC(N)=O)C(=O)N[C@@H](Cc1c[nH]c2ccccc12)C(=O)N[C@@H](CC(C)C)C(=O)N[C@H](C(=O)N[C@@H](CCCNC(=N)N)C(=O)N[C@@H](CCC(N)=O)C(=O)N[C@@H](CCCNC(=N)N)C(=O)N[C@@H](Cc1ccc(O)cc1)C(N)=O)[C@@H](C)O)C(C)C` [Compound 209, N{alpha-4}-(3-methylbutanoyl)-N{epsilon-7}-[2-(2-{2-[2-(2-{2-[(4S)-4-carboxy-4-(17-carboxyheptadecanamido)butanamido]ethoxy}ethoxy)acetamido]ethoxy}ethoxy)acetamido]-[4A,7K,9E,12S,13E,18Q,22V,28Y,30W,31L]hPYY (4-36)], the Ki in test [1] amounted to 8.07 nM. Further, the “Acute Food Intake 24 h [% vehicle]” value in test [2] was found to be 50 % vehicle.

Usually Ki stands for the equilibrium dissociation constant of an inhibitor or competing ligand from its target.

Values taken from US12559529B2, “NPY2 receptor agonists” (Boehringer Ingelheim International GmbH, priority 2019, dated 2026).
